Measured values reported in patent US8404855B2, “Substituted enaminocarbonyl compounds” (Bayer CropScience AG, priority 2006, dated 2013).

What was measured:
[1] = tested on: green peach aphid (Myzus persicae); assay: Myzus test; oral (MYZUPE O); type: in vivo
Lucilia cuprina larvae = assay: Lucilia cuprina test (LUCICU); type: in vivo; details: treated horse meat
Method: (§1) After the desired period of time, the kill in % is determined.

[2] = tested on: green peach aphid (Myzus persicae); assay: Myzus persicae test, hydroponic treatment (MYZUPE sys.); type: in vivo; details: pea plant in treated water
Method: The preparation of active compound is mixed with water. The stated concentration refers to the amount of active compound per volume unit of water (mg/l=ppm). The treated water is filled into containers housing a pea plant (Pisum sativum) which is then infected with the green peach aphid (Myzus persicae).
as §1

[3] = tested on: cotton aphid (Aphis gossypii); assay: Aphis gossypii test (APHIGO), leaf dip; type: in vivo; details: cotton leaves dipped
Method: as §1

[4] = tested on: green peach aphid (Myzus persicae); assay: Myzus test (MYZUPE spray treatment); type: in vivo
From the text: In this test, for example, the following compounds of the Preparation Examples show good activity: see table

[5] = tested on: green peach aphid (Myzus persicae); assay: Myzus persicae test (MYZUPE T), leaf dip; type: in vivo; details: 20 ppm; cabbage leaves dipped; comparison with prior art
Method: as §1

Boophilus microplus = Boophilus microplus test (BOOPMI injection); type: in vivo; details: 20 ppm (so in the source), 100% = no tick has laid fertile eggs, comparison with prior art
Method: The solution of active compound is injected into the abdomen (Boophilus microplus), and the animals are transferred into dishes and kept in a temperature-controlled room.
100% means that no tick has laid any fertile eggs.

Meloidogyne incognita = assay: Meloidogyne test (MELGIN spray treatment); type: in vivo; details: 20 ppm; gall formation, 100% = no galls; comparison with prior art
Method: Containers are filled with sand, active compound solution, Meloidogyne incognita egg/larvae suspension and lettuce seeds. The lettuce seeds germinate and the plants develop. On the roots, galls are formed.
After the desired period of time, the nematicidal activity is determined by the formation of galls in %. 100% means that no galls were found; 0% means that the number of galls on the treated plants corresponds to that of the untreated controls.

[6] = tested on: adult fleas (Ctenocephalides felis); assay: Ctenocephalides felis; oral (CTECFE); type: in vivo; details: 100 ppm in citrated cattle blood
Method: Part of the concentrate is diluted with citrated cattle blood, and the desired concentration is prepared.
20 unfed adult fleas (Ctenocephalides felis) are placed into a chamber whose top and bottom ends are closed with gauze. A metal cylinder whose bottom end is closed with parafilm is placed onto the chamber. The cylinder contains the blood/active compound preparation, which can be taken up by the fleas through the parafilm membrane. The blood is warmed to 37° C., but the flea chamber is at room temperature.
as §1

[7] = tested on: larvae of the mustard beetle (Phaedon cochleariae); assay: Phaedon test (PHAECO spray treatment); details: 500 g/ha; Chinese cabbage leaf disks sprayed
[8] = 4 ppm, comparison with prior art
[9] = 0.8 ppm, comparison with prior art
[10] = 500 g/ha, Chinese cabbage leaf disks sprayed

O=C1C=C(N(Cc2ccc(Cl)nc2)CC(F)F)CO1 [Example 1, 4-[[(6-Chloropyridin-3-yl)methyl](2,2-difluoroethyl)amino]furan-2(5H)-one]
Kill rate in % after 5 days ([1]; 0.032 ppm, oral, comparison with prior art): 100% | Kill rate in % after 2 days (Lucilia cuprina larvae; [8]): 100% | Kill rate in % after 6 days [2, 9]: 100% | Kill rate in % after 6 days [3, 9]: 60% | Kill rate in % after 6 days [3, 8]: 98% | Kill rate in % after 5 days ([4]; 4 g/ha, leaf disks sprayed, comparison with prior art): 80% | Kill rate in % after 6 days [5]: 95%

O=C1C=C(N(CCCF)Cc2ccc(Cl)nc2)CO1 [Example 2, 4-[[(6-Chloropyridin-3-yl)methyl](3-fluoro-n-propyl)amino]furan-2(5H)-one]
Kill rate in % after 5 days ([1]; 20 ppm, oral uptake by sucking): 100% | Kill rate in % after 5 days [4, 10]: 100%

O=C1C=C(N(CC=C(Cl)Cl)Cc2ccc(Cl)nc2)CO1 [Example 3, 4-[[(6-Chloropyridin-3-yl)methyl](3,3-dichloroprop-2-en-1-yl)amino]furan-2(5H)-one]
Kill rate in % after 5 days [4, 10]: 100%

O=C1C=C(N(CCF)Cc2ccc(Cl)nc2)CO1 [Example 4, 4-[[(6-Chloropyridin-3-yl)methyl](2-fluoroethyl)amino]furan-2(5H)-one]
Kill rate in % after 7 days (Boophilus microplus): 100% | Kill rate in % after 6 days ([2]; 0.16 ppm, comparison with prior art): 55% | Kill rate in % after 6 days [2, 9]: 100% | Kill rate in % after 14 days (Meloidogyne incognita): 70% | Kill rate in % after 6 days [3, 8]: 99% | Kill rate in % after 1 day ([6]; comparison with prior art): 30% | Kill rate in % after 6 days [5]: 80%

CC1OC(=O)C=C1N(Cc1ccc(Cl)nc1)CC(F)F (centres unmarked) [Example 6, 4-[[(6-Chloropyridin-3-yl)methyl](2,2-difluoroethyl)amino]-5-methylfuran-2(5H)-one]
Kill rate in % after 5 days [4, 10]: 100%

O=C1OCC(N(Cc2ccc(Cl)nc2)CC(F)F)=C1Br [Example 7, 3-Bromo-4-[[(6-chloropyridin-3-yl)methyl](2,2-difluoroethyl)amino]furan-2(5H)-one]
Kill rate in % after 5 days [4, 10]: 100%

O=C1OCC(N(Cc2ccc(Cl)nc2)CC(F)F)=C1Cl [Example 8, 3-Chloro-4-[[(6-chloropyridin-3-yl)methyl](2,2-difluoroethyl)amino]furan-2(5H)-one]
Kill rate in % after 2 days (Lucilia cuprina larvae; 100 ppm): 100% | Kill rate in % after 6 days ([2]; 4 ppm): 98% | Kill rate in % after 6 days ([3]; 20 ppm): 100% | Kill rate in % after 5 days [4, 10]: 100%

O=C1C=C(N(Cc2ccc(F)nc2)CC(F)F)CO1 [Example 15]
Kill rate in % after 7 days [7]: 100% | Kill rate in % after 2 days (Lucilia cuprina larvae; 100 ppm): 90% | Kill rate in % after 6 days ([2]; 4 ppm): 100% | Kill rate in % after 6 days ([3]; 100 ppm): 100% | Kill rate in % after 5 days [4, 10]: 100% | Kill rate in % after 2 days [6]: 90%

O=C1C=C(N(Cc2ccc(Cl)nc2)CC(F)Cl)CO1 (centres unmarked) [Example 17, 4-[[(6-chloropyridin-3-yl)methyl](2-chloro-2-fluoroethyl)amino]furan-2(5H)-one]
Kill rate in % after 7 days [7]: 100% | Kill rate in % after 5 days [4, 10]: 100%

(E/Z)-4-[[(6-Chloropyridin-3-yl)methyl](2-fluorovinyl)amino]-5-methylfuran-2(5H)-one [Example 5]
Kill rate in % after 5 days [4, 10]: 100%
